Data published in ChEMBL document CHEMBL4483862, “Open-source discovery of chemical leads for next-generation chemoprotective antimalarials” (2018).

Test system: Plasmodium berghei
Test: Luciferase/luciferin-expressing antifolate-resistant parasites were used to infect a culture of HepG2 cells that were pre-incubated with compounds. Infected hepatocytes emit light due to the luciferase reaction. Assay results are presented as the percent inhibition of light emission compared to control. […]
Type: functional
Conditions: sporozoite; for IC90: read-out: LUCIFERASE INFECTION ASSAY - IC90

| SMILES | IC90 | further results |
| --- | --- | --- |
| CN(C)CCNc1nc2sc3c(c2c(=O)n1-c1ccccc1)CCCCC3 | > 8.63 µM | IC50 (PBLUC_HILL_SLOPE 1.45, PBLUC_R_SQUARED 0.611, read-out: LUCIFERASE INFECTION ASSAY - IC50): 8.23 µM |
| Fc1ccc(C(CCNCc2ccccn2)c2ccc(Cl)cc2)cc1 (stereo not given) | > 9.3 µM | IC50 (PBLUC_HILL_SLOPE 1.42, PBLUC_R_SQUARED 0.0971, read-out: LUCIFERASE INFECTION ASSAY - IC50): 5.49 µM |
| CC(C)(C)c1ccc(Oc2ccc(N)cc2)cc1 | 4.63 µM | IC50 (PBLUC_HILL_SLOPE 1.38, PBLUC_R_SQUARED 0.811, read-out: LUCIFERASE INFECTION ASSAY - IC50): 0.942 µM |
| CCOCCCNC(=O)/C(C#N)=C/c1ccc([N+](=O)[O-])o1 | > 10 µM | IC50 (PBLUC_HILL_SLOPE 1.42, PBLUC_R_SQUARED 0.135, read-out: LUCIFERASE INFECTION ASSAY - IC50): > 10 µM |
| CN1N=C2c3ccccc3CCC2C1c1ccc(F)cc1 (stereo not given) | 5.64 µM | IC50 (PBLUC_HILL_SLOPE 1.42, PBLUC_R_SQUARED 0.884, read-out: LUCIFERASE INFECTION ASSAY - IC50): 1.2 µM |
| CC(C)c1ccc(NC(=O)Nc2nc(C(N)COCc3ccccc3)cs2)cc1 (stereo not given) | > 8.04 µM | IC50 (PBLUC_HILL_SLOPE 1.46, PBLUC_R_SQUARED 0.665, read-out: LUCIFERASE INFECTION ASSAY - IC50): 4.91 µM |
| O=C(Cn1cc(C(=O)c2ccccc2)c2ccccc21)Nc1ccc(F)cc1 | > 8.86 µM | IC50 (PBLUC_HILL_SLOPE 1.46, PBLUC_R_SQUARED 0.555, read-out: LUCIFERASE INFECTION ASSAY - IC50): 3.31 µM |
| CC(=O)Nc1ccc(Oc2ccnc3cc(Cl)ccc23)cc1 | > 10 µM | IC50 (PBLUC_HILL_SLOPE 1.43, PBLUC_R_SQUARED 0.691, read-out: LUCIFERASE INFECTION ASSAY - IC50): 3.48 µM |
| CCCN1CCc2nc(NCc3cccc(Oc4ccccc4)c3)ncc2C1 | > 8.81 µM | IC50 (PBLUC_HILL_SLOPE 1.46, PBLUC_R_SQUARED 0.3, read-out: LUCIFERASE INFECTION ASSAY - IC50): 3.92 µM |
| Cc1cc(/C=C/C(=O)Nc2nccs2)c(C)n1-c1ccccc1 | 3.27 µM | IC50 (PBLUC_HILL_SLOPE 1.4, PBLUC_R_SQUARED 0.69, read-out: LUCIFERASE INFECTION ASSAY - IC50): 0.681 µM |
| COc1ccc(S(=O)(=O)N(Cc2ccc(C(=O)NC3CC3)cc2)C2CC2)cc1OC | 7.7 µM | IC50 (PBLUC_HILL_SLOPE 1.44, PBLUC_R_SQUARED 0.778, read-out: LUCIFERASE INFECTION ASSAY - IC50): 1.68 µM |
| COc1ccc(C2c3ccsc3CCN2S(=O)(=O)c2ccc(F)c(Cl)c2)cc1 (stereo not given) | > 7.54 µM | IC50 (PBLUC_HILL_SLOPE 1.37, PBLUC_R_SQUARED 0.631, read-out: LUCIFERASE INFECTION ASSAY - IC50): 3.09 µM |
| Cc1cc(C(=O)N(C)Cc2nc(=O)c3ccccc3[nH]2)c(C)n1-c1ccccc1F | > 10 µM | IC50 (PBLUC_HILL_SLOPE 1.44, PBLUC_R_SQUARED 0.478, read-out: LUCIFERASE INFECTION ASSAY - IC50): 6.97 µM |
| C=CCN(C(=O)c1sc2nc3n(c(=O)c2c1C)CCCCC3)c1nc2c(s1)CCCC2 | > 10 µM | IC50 (PBLUC_HILL_SLOPE 1.42, PBLUC_R_SQUARED 0.275, read-out: LUCIFERASE INFECTION ASSAY - IC50): > 10 µM |
| Cc1cc(Cl)ccc1S(=O)(=O)N(Cc1ccncc1)C1CC1 | 7.99 µM | IC50 (PBLUC_HILL_SLOPE 1.42, PBLUC_R_SQUARED 0.462, read-out: LUCIFERASE INFECTION ASSAY - IC50): 1.69 µM |
| O=C(/C=C/c1ccccc1)Nc1ccc(C23CC4CC(CC(O)(C4)C2)C3)cc1 | 9.39 µM | IC50 (PBLUC_HILL_SLOPE 1.46, PBLUC_R_SQUARED 0.646, read-out: LUCIFERASE INFECTION ASSAY - IC50): 2.09 µM |
| COc1cc(/C=C/C(=O)c2ccc3[nH]c(=O)[nH]c3c2)cc(Cl)c1OC(F)F | > 10 µM | IC50 (PBLUC_HILL_SLOPE 1.43, PBLUC_R_SQUARED 0.612, read-out: LUCIFERASE INFECTION ASSAY - IC50): 6.07 µM |
| COc1ccc(NC(=O)c2cccc3c[nH]nc23)cc1Cc1ccccc1 | 9.56 µM | IC50 (PBLUC_HILL_SLOPE 1.42, PBLUC_R_SQUARED 0.679, read-out: LUCIFERASE INFECTION ASSAY - IC50): 2.02 µM |
| NC(=O)c1cc(-c2cs/c(=N\c3ccccc3F)n2C2CCCC2)ccc1O | > 10 µM | IC50 (PBLUC_HILL_SLOPE 1.38, PBLUC_R_SQUARED 0.237, read-out: LUCIFERASE INFECTION ASSAY - IC50): 4.32 µM |
| O=C(Nc1ccc(OC(F)(F)F)cc1)c1ccc(=O)n(Cc2ccc(Cl)cc2)c1 | > 7.81 µM | IC50 (PBLUC_HILL_SLOPE 1.46, PBLUC_R_SQUARED 0.0131, read-out: LUCIFERASE INFECTION ASSAY - IC50): 7.46 µM |

| SMILES | IC90 | further results |
| --- | --- | --- |
| CNc1nc(SCCS(=O)(=O)c2ccccc2)nc2ccccc12 | 6.83 µM | IC50 (PBLUC_HILL_SLOPE 1.42, PBLUC_R_SQUARED 0.718, read-out: LUCIFERASE INFECTION ASSAY - IC50): 1.45 µM |
| O=c1[nH]nc(CSc2ccccn2)c2ccccc12 | > 12.3 µM | IC50 (PBLUC_HILL_SLOPE 1.43, PBLUC_R_SQUARED 0.267, read-out: LUCIFERASE INFECTION ASSAY - IC50): 10 µM |
| CNC(=O)c1ccc(CN(C2CC2)S(=O)(=O)c2ccc(C(F)(F)F)cc2)cc1 | > 10 µM | IC50 (PBLUC_HILL_SLOPE 1.42, PBLUC_R_SQUARED 0.391, read-out: LUCIFERASE INFECTION ASSAY - IC50): 3.3 µM |
| FC(F)(F)c1c(-c2nc(-c3ccc(Cl)cc3)no2)cnn1-c1ccccc1 | 1.19 µM | IC50 (PBLUC_HILL_SLOPE 1.45, PBLUC_R_SQUARED 0.734, read-out: LUCIFERASE INFECTION ASSAY - IC50): 0.262 µM |
| O=C(NCc1ccc(Cl)cc1Cl)/C(=C/c1cccs1)n1nnnc1-c1ccccc1 | > 10 µM | IC50 (PBLUC_HILL_SLOPE 1.46, PBLUC_R_SQUARED 0.613, read-out: LUCIFERASE INFECTION ASSAY - IC50): 4.83 µM |
| Cc1cccc(C)c1Nc1nnc(C(O)c2ccc(F)c(Cl)c2)s1 (stereo not given) | > 10 µM | IC50 (PBLUC_HILL_SLOPE 1.46, PBLUC_R_SQUARED 0.342, read-out: LUCIFERASE INFECTION ASSAY - IC50): 2.96 µM |
| Cc1cccc(C)c1N1C(=O)CC(N2CCCC(c3nc4ccccc4s3)C2)C1=O (stereo not given) | 9.05 µM | IC50 (PBLUC_HILL_SLOPE 1.45, PBLUC_R_SQUARED 0.739, read-out: LUCIFERASE INFECTION ASSAY - IC50): 1.99 µM |
| N#CCCN(C(=O)CSc1nc2cc(S(=O)(=O)Nc3ccc(Cl)cc3)ccc2o1)c1ccccc1 | 7.89 µM | IC50 (PBLUC_HILL_SLOPE 1.44, PBLUC_R_SQUARED 0.751, read-out: LUCIFERASE INFECTION ASSAY - IC50): 1.72 µM |
| Cc1ccc(OCc2n[nH]c(=S)n2C2CCCCC2)c2c1CCC2 | > 9.61 µM | IC50 (PBLUC_HILL_SLOPE 1.42, PBLUC_R_SQUARED 0.362, read-out: LUCIFERASE INFECTION ASSAY - IC50): > 9.61 µM |
| Cc1c(C)n(CCN(C)C)c2ncn3nc(-c4ccccc4O)nc3c12 | > 9.42 µM | IC50 (PBLUC_HILL_SLOPE 1.46, PBLUC_R_SQUARED 0.808, read-out: LUCIFERASE INFECTION ASSAY - IC50): 2.21 µM |
| CCC(C)(C)NS(=O)(=O)c1ccc(C(C)(C)C)cc1 | > 10 µM | IC50 (PBLUC_HILL_SLOPE 1.46, PBLUC_R_SQUARED 0.189, read-out: LUCIFERASE INFECTION ASSAY - IC50): > 10 µM |
| O=C(Nc1nccs1)c1ccc(N2CCCCCC2)nc1 | > 10 µM | IC50 (PBLUC_HILL_SLOPE 1.4, PBLUC_R_SQUARED 0.612, read-out: LUCIFERASE INFECTION ASSAY - IC50): 2.36 µM |
| OC(c1cn2cc(-c3ccccc3)nc2s1)(C(F)(F)F)C(F)(F)F | 1.73 µM | IC50 (PBLUC_HILL_SLOPE 1.37, PBLUC_R_SQUARED 0.781, read-out: LUCIFERASE INFECTION ASSAY - IC50): 0.348 µM |
| Fc1cccc(-c2nccc3n[nH]c(-c4cccc(OC(F)(F)F)c4)c23)c1 | > 10 µM | IC50 (PBLUC_HILL_SLOPE 1.45, PBLUC_R_SQUARED 0.246, read-out: LUCIFERASE INFECTION ASSAY - IC50): 5.34 µM |
| CC(c1cccc(NC(=O)c2ccccc2)c1)N(C)c1ccc(C#N)cn1 (stereo not given) | > 10 µM | IC50 (PBLUC_HILL_SLOPE 1.47, PBLUC_R_SQUARED 0.583, read-out: LUCIFERASE INFECTION ASSAY - IC50): 3.04 µM |
| COc1cccc(N2CCN(CC(=O)c3c[nH]c4ccccc34)CC2C)c1 (stereo not given) | > 9.08 µM | IC50 (PBLUC_HILL_SLOPE 1.43, PBLUC_R_SQUARED 0.653, read-out: LUCIFERASE INFECTION ASSAY - IC50): 4.63 µM |
| COc1ccc(-c2[nH]c3ccc(F)cc3c2CCC(=O)NCc2nnc3ccccn23)cc1 | > 10 µM | IC50 (PBLUC_HILL_SLOPE 1.44, 1.44, PBLUC_R_SQUARED 0.412, 0.538, read-out: LUCIFERASE INFECTION ASSAY - IC50): 5.36 µM |
| Cc1cc(C)c(S(=O)(=O)N2CCC(C(=O)N3CCn4c3nc3ccccc34)CC2)c(C)c1 | > 10 µM | IC50 (PBLUC_HILL_SLOPE 1.44, PBLUC_R_SQUARED 0.637, read-out: LUCIFERASE INFECTION ASSAY - IC50): 3.45 µM |
| O=C(Nc1nnc(-c2ccco2)s1)c1csc(COc2ccc(Cl)cc2)n1 | > 10 µM | IC50 (PBLUC_HILL_SLOPE 1.45, PBLUC_R_SQUARED 0.301, read-out: LUCIFERASE INFECTION ASSAY - IC50): 4.28 µM |
| c1ccc(Nc2nc(-c3ccc4c(c3)CCC4)cs2)nc1 | > 10 µM | IC50 (PBLUC_HILL_SLOPE 1.40, 0.464, PBLUC_R_SQUARED 0.303, 0.681, read-out: LUCIFERASE INFECTION ASSAY - IC50): 4.84 µM |
